≈ marks a conversion by molar mass, not a printed value. Where a SMILES comes first, the peptide text is derived from it. The star is where a group is joined. Stearoyl = CCCCCCCCCCCCCCCCCC(=O)*; Palmitoyl = CCCCCCCCCCCCCCCC(=O)*; Myristoyl = CCCCCCCCCCCCCC(=O)*; Lauroyl = CCCCCCCCCCCC(=O)*; Decanoyl = CCCCCCCCCC(=O)*; Octanoyl = CCCCCCCC(=O)*; Hexanoyl = CCCCCC(=O)*
Key:
Format in all cases: functional
[1] = system: Staphylococcus aureus; assay: Antimicrobial activity against Staphylococcus aureus ATCC 12600 after 17 to 20 hrs by serial dilution method
[2] = system: Candida albicans; assay: Antimicrobial activity against Candida albicans ATCC 14053 after 17 to 20 hrs by serial dilution method
[3] = system: Escherichia coli; assay: Antimicrobial activity against Escherichia coli ATCC 25922 after 17 to 20 hrs by serial dilution method

Compound | MIC [1] [µg/mL] | MIC [2] [µg/mL] | MIC [3] [µg/mL]
CCCCCCCCCCCCCCCCCC(=O)N[C@@H](CCCCN)C(=O)N[C@@H](CCCCN)C(=O)N[C@@H](Cc1c[nH]c2ccccc12)C(=O)N[C@@H](CCCCN)C(N)=O (Stearoyl-KKWK-NH2) | 31.2 (≈ 36.5 µM) | 31.2 (≈ 36.5 µM) | 31.2 (≈ 36.5 µM)
CCCCCCCCCC(=O)N[C@@H](CCCNC(=N)N)C(=O)N[C@@H](Cc1c[nH]c2ccccc12)C(=O)N[C@@H](CCCNC(=N)N)C(N)=O (Decanoyl-Arg-Trp-Arg-NH2) | 7.8 (≈ 11.6 µM) | > 62.5 | 15.6 (≈ 23.3 µM)
CCCCCCCCCCCCCC(=O)N[C@@H](CCCCN)C(=O)N[C@@H](CCCCN)C(=O)N[C@@H](Cc1c[nH]c2ccccc12)C(=O)N[C@@H](CCCCN)C(N)=O (Myristoyl-KKWK-NH2) | 3.9 (≈ 4.89 µM) | > 62.5 | 7.8 (≈ 9.77 µM)
CCCCCCCCCCCCCCCCCC(=O)N[C@@H](CCCCN)C(=O)N[C@@H](Cc1c[nH]c2ccccc12)C(=O)N[C@@H](CCCCN)C(=O)N[C@@H](Cc1c[nH]c2ccccc12)C(N)=O (Stearoyl-KWKW-NH2) | > 31.2 | > 62.5 | > 31.2
CCCCCCCC(=O)N[C@@H](CCCNC(=N)N)C(=O)N[C@@H](CCCCN)C(=O)N[C@@H](Cc1c[nH]c2ccccc12)C(=O)N[C@@H](Cc1c[nH]c2ccccc12)C(=O)N[C@@H](CCCCN)C(N)=O (Octanoyl-RKWWK-NH2) | 15.6 (≈ 16.8 µM) | – | 62.5 (≈ 67.3 µM)
CCCCCCCCCC(=O)N[C@@H](CCCCN)C(=O)N[C@@H](Cc1c[nH]c2ccccc12)C(=O)N[C@@H](Cc1c[nH]c2ccccc12)C(=O)N[C@@H](CCCCN)C(N)=O (Decanoyl-KWWK-NH2) | 7.8 (≈ 9.75 µM) | 31.2 (≈ 39 µM) | 15.6 (≈ 19.5 µM)
CCCCCCCCCCCCCCCCCC(=O)N[C@@H](CCCNC(=N)N)C(=O)N[C@@H](Cc1c[nH]c2ccccc12)C(=O)N[C@@H](CCCNC(=N)N)C(N)=O (Stearoyl-Arg-Trp-Arg-NH2) | > 31.2 | > 62.5 | > 31.2
CCCCCCCCCCCCCCCCCC(=O)N[C@@H](CCCCN)C(=O)N[C@H](C(=O)N[C@@H](CCCCN)C(=O)N[C@@H](CCCNC(=N)N)C(=O)N[C@@H](Cc1c[nH]c2ccccc12)C(=O)N[C@@H](Cc1c[nH]c2ccccc12)C(=O)N[C@@H](CCCNC(=N)N)C(N)=O)[C@@H](C)CC (Stearoyl-KIKRWWR-NH2) | > 31.2 | > 62.5 | > 31.2
CCCCCCCCCCCCCCCCCC(=O)N[C@@H](CCCCN)C(=O)N[C@@H](Cc1c[nH]c2ccccc12)C(=O)N[C@@H](Cc1c[nH]c2ccccc12)C(=O)N[C@@H](CCCCN)C(N)=O (Stearoyl-KWWK-NH2) | > 31.2 | > 62.5 | > 31.2
CCCCCCCCCC(=O)N[C@@H](CCCNC(=N)N)C(=O)N[C@@H](Cc1c[nH]c2ccccc12)C(=O)N[C@@H](Cc1c[nH]c2ccccc12)C(=O)N[C@@H](CCCNC(=N)N)C(N)=O (Decanoyl-RWWR-NH2) | 7.8 (≈ 9.11 µM) | 15.6 (≈ 18.2 µM) | 15.6 (≈ 18.2 µM)
CCCCCC(=O)N[C@@H](CCCNC(=N)N)C(=O)N[C@@H](CCCCN)C(=O)N[C@@H](Cc1c[nH]c2ccccc12)C(=O)N[C@@H](Cc1c[nH]c2ccccc12)C(=O)N[C@@H](CCCCN)C(N)=O (Hexanoyl-RKWWK-NH2) | 31.2 (≈ 34.7 µM) | – | > 62.5
CCCCCCCCCC(=O)N[C@@H](CCCNC(=N)N)C(=O)N[C@@H](Cc1c[nH]c2ccccc12)C(=O)N[C@@H](CCCNC(=N)N)C(=O)N[C@@H](Cc1c[nH]c2ccccc12)C(N)=O (Decanoyl-RWRW-NH2) | 7.8 (≈ 9.11 µM) | > 62.5 | 15.6 (≈ 18.2 µM)
CCCCCCCCCCCCCCCC(=O)N[C@@H](CCCNC(=N)N)C(=O)N[C@@H](CCCCN)C(=O)N[C@@H](Cc1c[nH]c2ccccc12)C(=O)N[C@@H](Cc1c[nH]c2ccccc12)C(=O)N[C@@H](CCCCN)C(N)=O (Palmitoyl-RKWWK-NH2) | 31.2 (≈ 30 µM) | – | 31.2 (≈ 30 µM)
CCCCCCCCCCCC(=O)N[C@@H](CCCNC(=N)N)C(=O)N[C@@H](CCCCN)C(=O)N[C@@H](Cc1c[nH]c2ccccc12)C(=O)N[C@@H](Cc1c[nH]c2ccccc12)C(=O)N[C@@H](CCCCN)C(N)=O (Lauroyl-RKWWK-NH2) | 7.8 (≈ 7.92 µM) | – | 7.8 (≈ 7.92 µM)

Second part, the compound after the results:

MIC [1] [µg/mL] | MIC [2] [µg/mL] | MIC [3] [µg/mL] | Compound
> 31.2 | > 62.5 | > 31.2 | CCCCCCCCCCCCCCCCCC(=O)N[C@@H](CCCCN)C(=O)N[C@H](C(=O)N[C@@H](CCCNC(=N)N)C(=O)N[C@@H](Cc1c[nH]c2ccccc12)C(=O)N[C@@H](Cc1c[nH]c2ccccc12)C(=O)N[C@@H](CCCNC(=N)N)C(N)=O)[C@@H](C)CC (Stearoyl-KIRWWR-NH2)
7.8 (≈ 7.5 µM) | > 62.5 | 7.8 (≈ 7.5 µM) | CCCCCCCCCC(=O)N[C@@H](CCCCN)C(=O)N[C@@H](CCCCN)C(=O)N[C@H](C(=O)N[C@@H](CCCNC(=N)N)C(=O)N[C@@H](Cc1c[nH]c2ccccc12)C(=O)N[C@@H](CCCNC(=N)N)C(N)=O)[C@@H](C)CC (Decanoyl-KKIRWR-NH2)
15.6 (≈ 13.5 µM) | > 62.5 | > 31.2 | CCCCCCCCCCCCCCCCCC(=O)N[C@@H](CCCCN)C(=O)N[C@@H](CCCCN)C(=O)N[C@H](C(=O)N[C@@H](CCCNC(=N)N)C(=O)N[C@@H](Cc1c[nH]c2ccccc12)C(=O)N[C@@H](CCCNC(=N)N)C(N)=O)[C@@H](C)CC (Stearoyl-KKIRWR-NH2)
3.9 (≈ 3.56 µM) | > 62.5 | 7.8 (≈ 7.12 µM) | CCCCCCCCCCCCCC(=O)N[C@@H](CCCCN)C(=O)N[C@@H](CCCCN)C(=O)N[C@H](C(=O)N[C@@H](CCCNC(=N)N)C(=O)N[C@@H](Cc1c[nH]c2ccccc12)C(=O)N[C@@H](CCCNC(=N)N)C(N)=O)[C@@H](C)CC (Myristoyl-KKIRWR-NH2)
> 31.2 | > 62.5 | > 31.2 | CCCCCCCCCCCCCCCCCC(=O)N[C@@H](CCCNC(=N)N)C(=O)N[C@H](C(=O)N[C@@H](CCCCN)C(=O)N[C@@H](Cc1c[nH]c2ccccc12)C(=O)N[C@@H](CCCCN)C(N)=O)[C@@H](C)CC (Stearoyl-RIKWK-NH2)
3.9 (≈ 3.56 µM) | > 62.5 | 15.6 (≈ 14.2 µM) | CCCCCCCCCCCCCC(=O)N[C@@H](CCCCN)C(=O)N[C@H](C(=O)N[C@@H](CCCCN)C(=O)N[C@@H](CCCNC(=N)N)C(=O)N[C@@H](Cc1c[nH]c2ccccc12)C(=O)N[C@@H](CCCNC(=N)N)C(N)=O)[C@@H](C)CC (Myristoyl-KIKRWR-NH2)
15.6 (≈ 15 µM) | > 62.5 | 31.2 (≈ 30 µM) | CCCCCCCCCC(=O)N[C@@H](CCCCN)C(=O)N[C@H](C(=O)N[C@@H](CCCCN)C(=O)N[C@@H](CCCNC(=N)N)C(=O)N[C@@H](Cc1c[nH]c2ccccc12)C(=O)N[C@@H](CCCNC(=N)N)C(N)=O)[C@@H](C)CC (Decanoyl-KIKRWR-NH2)
15.6 (≈ 12.2 µM) | > 62.5 | 31.2 (≈ 24.3 µM) | CCCCCCCCCCCCCC(=O)N[C@@H](CCCCN)C(=O)N[C@H](C(=O)N[C@@H](CCCCN)C(=O)N[C@@H](CCCNC(=N)N)C(=O)N[C@@H](Cc1c[nH]c2ccccc12)C(=O)N[C@@H](Cc1c[nH]c2ccccc12)C(=O)N[C@@H](CCCNC(=N)N)C(N)=O)[C@@H](C)CC (Myristoyl-KIKRWWR-NH2)
3.9 (≈ 3.55 µM) | > 62.5 | 7.8 (≈ 7.11 µM) | CCCCCCCCCC(=O)N[C@@H](CCCCN)C(=O)N[C@@H](CCCNC(=N)N)C(=O)N[C@H](C(=O)N[C@@H](Cc1c[nH]c2ccccc12)C(=O)N[C@@H](Cc1c[nH]c2ccccc12)C(=O)N[C@@H](CCCNC(=N)N)C(N)=O)[C@@H](C)CC (Decanoyl-KRIWWR-NH2)

— ChEMBL document CHEMBL3286360, “Tuning the antimicrobial pharmacophore to enable discovery of short lipopeptides with multiple modes of action” (Eur J Med Chem, 2014)
